For this data set, the target named is T1, CYP1A2 (Homo sapiens, UniProt P05177).
T1 construct: native enzyme in human liver microsomes
T1 sequence (P05177 2-516): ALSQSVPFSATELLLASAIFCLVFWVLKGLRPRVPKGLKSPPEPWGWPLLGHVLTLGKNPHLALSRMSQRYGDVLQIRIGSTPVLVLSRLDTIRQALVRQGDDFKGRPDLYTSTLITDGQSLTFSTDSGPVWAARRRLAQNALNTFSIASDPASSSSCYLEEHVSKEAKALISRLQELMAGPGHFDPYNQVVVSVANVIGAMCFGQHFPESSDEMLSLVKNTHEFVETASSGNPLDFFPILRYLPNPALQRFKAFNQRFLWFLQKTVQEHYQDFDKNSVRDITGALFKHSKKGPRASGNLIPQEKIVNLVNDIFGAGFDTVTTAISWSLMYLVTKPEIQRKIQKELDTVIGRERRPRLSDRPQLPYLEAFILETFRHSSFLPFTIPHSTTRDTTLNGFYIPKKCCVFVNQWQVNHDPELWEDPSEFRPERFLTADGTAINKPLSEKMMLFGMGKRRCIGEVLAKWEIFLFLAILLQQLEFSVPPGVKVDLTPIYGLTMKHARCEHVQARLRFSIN
In words: CYP activity inhibition in human liver microsomes. In kind it is biochemical. As to conditions: read-out: IC50 (μM) / Direct inhibition. An excerpt:
CYP activity inhibition in human liver microsomes on CYP1A2
(In general: Liver microsomes are vesicles of endoplasmic reticulum, rich in cytochrome P450 enzymes.)

As for `COC[C@H]1CN(C(=O)[C@]2(F)CN(C3CCCC3)C[C@H]2c2ccc(OC)cc2)C[C@@H]1c1ccc(C(F)(F)F)cc1N1CCC(C(=O)O)CC1` [dersimelagon], the IC50 is > 100 µM.

(Values after paper PMC11783400, “Assessment of Potential Drug–Drug Interactions for Novel Oral Melanocortin‐1 Receptor Agonist Dersimelagon” (Pharmacology Research & Perspectives, 2025).)
